Results as given in US12344572B2, “Cationic lipids and transfection methods” (Factor Bioscience Inc., priority 2019, dated 2025).

Tests used:
[1] = tested on: primary human epidermal keratinocytes; test: Transfection of primary human epidermal keratinocytes with GFP-encoding RNA complexed with lipid, in 100% FBS; format: cell-based
[2] = tested on: confluent layer of primary human epidermal keratinocytes; test: Transfection of a confluent layer of primary human epidermal keratinocytes with GFP-encoding RNA; format: cell-based; conditions: images 24 hours following transfection; both lipid-to-RNA mass ratios tested
Rat = test: mRNA delivery in rat by intradermal injection, anti-GFP histology; format: in vivo; conditions: GFP mRNA complexed at 2.5 μg/μg, necropsy 48 hours
[3] = Zeta potential of DLinDHS/RNA complexes versus buffer pH; format: physicochemical
[4] = tested on: primary human epidermal keratinocytes; test: Gene editing of keratinocytes with RNA encoding gene-editing proteins, T7E1 endonuclease digestion; format: cell-based; conditions: RNA encoding gene-editing proteins complexed with lipid
[5] = Particle size of DLinDHS/RNA complexes by dynamic light scattering; format: physicochemical; conditions: DLinDHS/RNA complexes formed in aqueous mRNA solution with varied sodium chloride concentration
human subject = test: In vivo mRNA delivery to a human subject by intradermal injection, confocal fluorescence microscopy of biopsy; conditions: human male, ventral forearm, 400 ng RNA in 20 μL, 2.5 μg/μg, biopsy after 48 hours
[6] = tested on: human peripheral blood mononuclear cells (hPBMCs); test: Transfection of human peripheral blood mononuclear cells with GFP-encoding RNA complexed with lipid; format: cell-based; conditions: images 16 hours following transfection; both lipid-to-RNA mass ratios tested
RNase A = test: Protection of mRNA from RNase A degradation, GFP readout in keratinocytes; format: cell-based; conditions: DLinDHS/mRNA complexes treated with RNase A after complexation, 2.5 μg/μg, 20,000 keratinocytes in serum-free medium
[7] = tested on: primary human dermal fibroblasts; test: Time-lapse fluorescence imaging of labeled RNA / labeled lipid uptake in dermal fibroblasts; format: cell-based
[8] = tested on: primary human adult dermal fibroblasts; test: Transfection of primary human adult dermal fibroblasts with GFP-encoding RNA; format: cell-based; conditions: images 16 hours following transfection; both lipid-to-RNA mass ratios tested
[9] = tested on: human epidermal keratinocytes; test: GFP mRNA delivery to keratinocytes in serum-free medium or 50% FBS; format: cell-based; conditions: 20,000 keratinocytes, 0% FBS or 50% FBS, images 16 hours following transfection; DLinDHS at 2.5 μg/μg lipid-to-RNA; LNPs 300 ng final mRNA

## CCCCC/C=C\C/C=C\CCCCCCCCN(CCCCN(CCCCCCCC/C=C\C/C=C\CCCCC)CC(O)CN)CC(O)CN (centres unmarked) [DHDLinS, N^1,N^4-dilinoleyl-N^1,N^4-di-(2-hydroxy-3-aminopropyl)-diaminobutane]
[1]; 400 ng per well GFP RNA, complexation in DMEM, transfection in 100% FBS, images 8 hours after transfection, lipid without acetone purification
  transfection of keratinocytes (GFP fluorescence): transfected with high efficiency
[1]; DHDLinS purified by extraction with acetone, keratinocytes, images 16 hours following transfection
  lipid-to-RNA mass ratios at which minimal increase in fluorescence signal was observed: greater than 2 μg/μg
[1]; experiment of FIG. 1, keratinocytes, 100% FBS
  time after transfection at which a fluorescent signal was detected: one
[2]
  transfection of confluent keratinocytes (GFP fluorescence): effectively transfected
Rat
  reporter protein (GFP) expression in tissue: localized expression in the dermal layer
[3]; DLinDHS/RNA lipoplexes diluted into 20 mM citrate pH 3.0-6.0 or 20 mM phosphate pH 7.4
  dependence of zeta potential on pH: pH-dependent
[3]; DLinDHS/RNA lipoplexes, 2.5 μg/μg, 20 mM phosphate, pH 7.4
  zeta potential: −22.1 mV
[4]
  gene-editing efficiency: gene edited at high efficiency
[5]
  particle size of lipoplex (Z-average, DLS): ionic-strength dependent
Human subject
  reporter protein (RFP) expression in skin: RFP-positive cells that have a morphology consistent with that of fibroblasts
[6]
  transfection of hPBMCs (GFP fluorescence): effectively transfected hPBMCs at both lipid-to-RNA mass ratios tested
RNase A
  protection of complexed RNA from RNase A degradation (GFP expression): protected from degradation
[7]; 100 ng GFP mRNA, 2.5 μg/μg, 20,000 fibroblasts in 10% FBS
  time after transfection at which protein expression begins: ≤ 2.5 h
[7]; 100 ng GFP mRNA, 20% Cy5-labeled, 2.5 μg/μg, 20,000 fibroblasts in 10% FBS
  time to detection of mRNA in cytoplasm after contact with lipoplexes: ≤ 50 min
[7]; BODIPY-labeled DLinDHS (10:1), 200 ng GFP mRNA, fibroblasts
  contact of labeled lipid with cells: contacts cells within minutes after transfection
[8]
  transfection of adult dermal fibroblasts (GFP fluorescence): effectively transfected
[9]
  mRNA delivery in serum (GFP fluorescence): efficiently delivers mRNA in 50% serum
